Structures are written as SMILES. Where “and” joins values, the source holds several entries; their conditions need not be identical. Equal entries are not always repeated.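 Following 48 hours of exposure in 96-well plates, responses at five concentrations were used to interpolate endpoints linearly. The concentration for 50% growth inhibition is given as GI50. TGI is the concentration that stops growth completely.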 Starred links: 1 amine or outer side, 2 acyl side, 3 side chain; linkers in the order of their positions; H or OH if unused. Positions of bridges follow the written chain, without caps; N, C: chain ends. Non-standard residues stand in square brackets, D forms with d. Residues, ends and D or L forms follow the SMILES beside them. Chains are numbered I, II in the order given. Actinocin(1to9) = Cc1c2oc3c(C)ccc(C(=O)[*:2])c3nc-2c(C(=O)[*:1])c(N)c1=O; NMeV = CN[CH](C(=O)O)C(C)C; Sar = CNCC(=O)O

What all share (assay): inhibition of tumour cell growth, NCI panel, 48 h
Assay [1] concerns HCT-116 colon.
For assay [2], the system named is NCI-H460 lung.
The subject of assay [3] is OVCAR-8 ovarian.
Assay [4] has as its system MDA-MB-231 breast.
Assay [5] deals with OVCAR-5 ovarian.
Assay [6] concerns HL-60(TB) leukemia.
Assay [7] deals with SNB-19 CNS.
Assay [8] relates to NCI-H23 lung.
In assay [9] the test system is HCT-15 colon.
Assay [10] has as its system A549 NSCLC.

For the compound `COc1cc2oc(=O)ccc2cc1C(=O)CC(C)C`, the TGI in assay [1], in assay [2], in assay [3], in assay [4], in assay [5] and in [6] was more than 100 µM throughout. Besides, the TGI in assay [7], in [8], in [9] and in [10] was more than 100 µM each time.
Turning to `CC(C)(C)OC(=O)NC(CCCCNC(=O)OCc1ccccc1)C(=O)NCCNc1ccc(NCCNC(=O)C(CCCCNC(=O)OCc2ccccc2)NC(=O)OC(C)(C)C)c2c1C(=O)c1ccccc1C2=O` (stereo unspecified), the TGI is more than 75.1 µM in assay [1]; more than 100 µM in assay [2]; more than 78.1 µM in [3]; 38.2 µM in assay [4]; more than 100 µM in assay [5]; 45.9 µM in assay [7]. Also, the TGI in assay [8], in assay [9] and in assay [10] was more than 100 µM throughout.
On to `CC(=O)OC1CC[C@@]2(C)C(=CC[C@@H]3[C@@H]2CC[C@]2(C)Nc4nn(S(C)(=O)=O)cc4C[C@@H]32)C1` (stereo partly specified), for which the TGI is 72.5 µM in assay [2]; more than 100 µM in [3]; more than 100 µM in [4]; more than 100 µM in [5]; more than 100 µM in assay [7]; more than 100 µM in assay [8]. The compound also yielded a TGI in assay [9] of 89.4 µM.
As for `O=C(CSc1nc2ccc([N+](=O)[O-])cc2s1)c1ccc2ccccc2c1`, the TGI in assay [1], in assay [2], in [3], in assay [4], in assay [5] and in assay [6] was more than 100 µM each time. In addition, the TGI in [7], in assay [8], in assay [9] and in assay [10] was more than 100 µM throughout.
As for `Cc1ccccc1N=Nc1c(O)c(S(=O)(=O)O)cc2cc(S(=O)(=O)O)ccc12`, the TGI in assay [1], in assay [2], in assay [3], in [4], in assay [5] and in [6] was more than 100 µM each time. For the same compound, the TGI in assay [7], in [8], in [9] and in [10] was more than 100 µM throughout.
For the compound `Cn1c(=O)[nH]c2nncnc2c1=O`, the TGI is 219 µM in assay [1]; 245 µM in assay [2]; more than 62.5 µM in [3]; more than 625 µM in assay [5]; 55.2 µM in assay [6]; 419 µM in assay [7]. The TGI was 420 µM in assay [8], more than 625 µM in assay [9] and more than 525 µM in assay [10].
As for `Nc1ncnc2c1sc1nc3ccccc3n12`, the TGI in assay [2], in [3], in [4], in [5], in assay [7] and in assay [8] was more than 100 µM throughout. Moreover, the TGI in [9] and in [10] was more than 100 µM each time.
Regarding `COCC1CCCN1c1ccc(C=N/C(C#N)=C(\N)C#N)cc1` (stereo unspecified), the GI50 in [1] was 9.19 µM; in assay [2] it was more than 100 µM; in assay [3], 45.3 µM; in assay [4], 18.7 µM; in assay [5], more than 100 µM; in assay [7], 36.7 µM. Also, the figures for the GI50 in assay [8] and in assay [10] were more than 100 µM and 14 µM, respectively. For the same compound, the TGI in assay [1], in assay [2], in assay [3], in [4], in assay [5] and in assay [7] was more than 100 µM each time. Further, the TGI in [8] and in assay [10] was more than 100 µM in each case.
Regarding `O=c1c2cc(I)ccc2nc(SCc2nncs2)n1Cc1ccccc1`, the TGI is more than 100 µM in assay [1]; more than 100 µM in assay [2]; more than 100 µM in [3]; 76.7 µM in assay [4]; more than 100 µM in assay [5]; more than 100 µM in assay [6]. Moreover, the TGI in [7], in [8], in assay [9] and in assay [10] was more than 100 µM each time.
As to `Clc1ccccc1/C=c1\nc(-c2ccccc2)n2c1nc1ccccc12`, the TGI in assay [1] was more than 100 µM; in assay [2], more than 100 µM; in [3], more than 100 µM; in assay [4] it was 73.1 µM; in assay [5], more than 100 µM; in assay [6] it was more than 100 µM. Further, the TGI in [7] was more than 100 µM; in [8], 47.8 µM; in assay [9] it was more than 100 µM; in assay [10] it was more than 100 µM.
With `COc1ccc(C(=O)C2=NON3OC23C(=O)c2ccc(OC)cc2)cc1` (stereo unspecified), the TGI in assay [1] is 19.6 µM; in assay [2], 40 µM; in assay [3] it was 21 µM; in assay [5], 36.7 µM; in assay [7] it was 33.7 µM; in assay [8], 17.8 µM. The TGI in [9] is 36.6 µM; in assay [10] it was 48.5 µM.
Turning to `Cc1coc2c1C[C@@]1(C)[C@H](CCC[C@@H]1C)[C@H]2O`, the TGI in assay [1] is more than 100 µM; in [2], more than 100 µM; in assay [3] it was more than 100 µM; in assay [4], 55.9 µM; in [5], more than 100 µM; in assay [6] it was 44.6 µM. Moreover, the TGI in [7], in [8] and in [9] was more than 100 µM throughout.
On to `COc1c(CC=C(C)C)c(O)c(C(CC(C)C)c2c(O)c3c(c(C(C)=O)c2O)OC(C(C)(C)O)C3)c(O)c1C(C)=O` (stereo unspecified), for which the TGI in [1] is more than 12.5 µM; in [3] it was more than 12.5 µM; in assay [5], more than 12.5 µM; in [6] it was 7.55 µM; in assay [7] it was more than 12.5 µM; in [8], 8.9 µM. For the same compound, the TGI in [9] and in assay [10] was more than 12.5 µM throughout.
On to `O=c1[nH]c(Nc2ccc(Cl)c(C(F)(F)F)c2)nc2nc[nH]c12`, for which the TGI in assay [1], in assay [2], in assay [3], in assay [4], in assay [5] and in [7] was more than 100 µM each time. Besides, the TGI in assay [8], in assay [9] and in [10] was more than 100 µM in each case.
`O=C(O[C@@H](/C=C/c1ccccc1)P1(=O)N(Cc2ccccc2)[C@H]2CCCC[C@@H]2N1Cc1ccccc1)c1ccccc1`: the TGI was more than 100 µM in assay [1]; 5.26 µM in [2]; more than 100 µM in assay [3]; 6.95 µM in assay [4]; more than 100 µM in assay [5]; 7.66 µM in assay [6]. Further, the TGI in assay [7] is more than 100 µM; in assay [8], 36 µM; in [9], more than 100 µM; in assay [10], more than 100 µM.
In the case of `O=C(O)c1ccc(C(=O)c2ccccc2C(=O)O)cc1C(=O)O`, the TGI in [1], in [2], in [3], in assay [4], in assay [5] and in assay [6] was more than 100 µM each time. Moreover, the TGI in [7], in [8], in [9] and in [10] was more than 100 µM throughout.
Regarding `COCCNCc1ccc(-c2cc3nccc(Oc4ccc(NC(=S)NC(=O)Cc5ccc(F)cc5)cc4F)c3s2)nc1`, the GI50 in assay [3] is 2.17 µM; in assay [4], 1.97 µM; in assay [5] it was 3.05 µM; in assay [8] it was 1.51 µM; in [10], 1.72 µM. The TGI in assay [3] stood at 5.12 µM; in [4], 4.1 µM; in assay [5], 13.6 µM; in assay [8] it was 4.63 µM; in [10], 3.29 µM.
Take `CC(C)(C)OC(=O)n1c2ccccc2c2c(=O)nc(N3CCCCC3)sc21`: the TGI in assay [2], in [3], in [4], in assay [5], in [6] and in assay [7] was more than 100 µM in each case. Also, the TGI in [8], in assay [9] and in assay [10] was more than 100 µM throughout.
As for `O=c1ccc2nc3cc(Br)ccc3sc-2c1`, the TGI in assay [1] is more than 100 µM; in assay [2] it was more than 100 µM; in [5], more than 100 µM; in [6], 37.5 µM; in [7], more than 100 µM; in [8] it was more than 100 µM. In addition, the TGI in [9] and in [10] was more than 100 µM in each case.
`OCc1cn(C(c2ccccc2)(c2ccccc2)c2ccccc2)cn1`: the TGI in assay [1], in [2], in assay [3], in assay [4], in assay [5] and in [6] was more than 100 µM throughout. The TGI in [7], in assay [8], in [9] and in assay [10] was more than 100 µM in each case.
With `N#CC12Cc3cc4c(cc3-c3cccc(c31)CCN2C(=O)c1ccccc1)OCO4` (stereo unspecified), the TGI in [1], in assay [3], in assay [5], in assay [6], in assay [7] and in [8] was more than 100 µM throughout. The compound also came in with a TGI in assay [10] of more than 100 µM.
For the compound `CCOC(=O)C(/C(=N/S(=O)(=O)c1cc(C)c(Cl)cc1[S-])[n+]1ccc(N(C)C)cc1)=C(/O)c1ccc([N+](=O)[O-])cc1`, the TGI in [1] was 36.7 µM; in [2], more than 100 µM; in assay [3], more than 100 µM; in [4] it was more than 100 µM; in assay [5], more than 100 µM; in [6] it was 64.5 µM. For the same compound, the TGI in assay [9] and in [10] was more than 100 µM throughout.
Consider `O=c1[nH]c2nnc(COc3ccc(Cl)cc3Cl)n2nc1Cc1ccccc1`, for which the TGI is more than 100 µM in [1]; more than 100 µM in assay [2]; 53.9 µM in [3]; more than 100 µM in assay [4]; more than 100 µM in assay [5]; more than 100 µM in [6]. Moreover, the TGI in [7], in [8], in assay [9] and in assay [10] was more than 100 µM throughout.
As to `C[N+]1(CCC(=O)c2ccco2)CC2CCC(CC2)C1` (stereo unspecified), the TGI in assay [1], in assay [2], in assay [3], in assay [4], in assay [5] and in assay [7] was more than 100 µM each time. The TGI in [8], in [9] and in assay [10] was more than 100 µM each time.
With `CCC(C)C1NC(=O)C(NC(=O)c2c3nc4c(C(=O)NC5C(=O)NC(C(C)CC)C(=O)N6CCCC6C(=O)N(C)CC(=O)N(C)C(C(C)C)C(=O)OC5C)ccc(C)c4oc-3c(C)c(=O)c2N)C(C)OC(=O)C(C(C)C)N(C)C(=O)CN(C)C(=O)C2CCCN2C1=O` (stereo unspecified) (I: TIP[Sar][NMeV] / II: TIP[Sar][NMeV]; ester I:1-I:C, II:1-II:C; linker I:N-II:N via Actinocin(1to9); configuration not given here), the TGI was 0.125 µM in assay [3]; 0.156 µM and 0.481 µM in assay [4]; 0.0273 µM and 0.0172 µM in [5]; 0.0186 µM in [6]; 0.0111 µM in assay [7]; 0.0168 µM in assay [8]. In addition, the TGI amounted to 10.3 µM in assay [9] and 10.9 µM in assay [10]. Further, in [9], the GI50 is 0.0109 µM.
Regarding `Cc1c(N2C(=O)/C(=C/c3ccc(Cl)cc3)N=C2c2ccccc2)c(=O)n(-c2ccccc2)n1C`, the TGI was more than 100 µM in assay [1]; more than 100 µM in assay [2]; more than 100 µM in assay [3]; more than 100 µM in assay [4]; more than 100 µM in assay [5]; 57 µM in assay [6]. Besides, the TGI in assay [8] came to 78.2 µM; in [9], 19.6 µM; in assay [10], 99.4 µM.
In the case of `COc1ccc2nc3c(C(=O)NCCN(C)C)cccc3cc2c1`, the TGI in assay [1] worked out at 9.27 µM; in [2], 3.65 µM; in assay [3], 4.46 µM; in assay [5], 5.9 µM; in [6], 4.64 µM; in assay [7], 7.58 µM. Besides, the TGI came to 5.09 µM in assay [8], 9.84 µM in assay [9] and 5.26 µM in assay [10].

The record behind these values is PubChem BioAssay (NCI).
